Data as given in patent EP4725507A1, “POLYPEPTIDE CONJUGATE, PHARMACEUTICAL COMPOSITION CONTAINING POLYPEPTIDE CONJUGATE AND USE THEREOF” (Nanjing Anji Biotechnology Co., Ltd., priority 2023, dated 2025).
Peptide text beside a SMILES is read from it. * marks the point of attachment. Paclitaxel(2'-O-succinyl) = CC(=O)O[C@H]1C(=O)[C@@]2(C)[C@H]([C@H](OC(=O)c3ccccc3)[C@]3(O)C[C@H](OC(=O)[C@H](OC(=O)CCC(=O)*)[C@@H](NC(=O)c4ccccc4)c4ccccc4)C(C)=C1C3(C)C)[C@]1(OC(C)=O)CO[C@@H]1C[C@@H]2O

Tests used:
A549 cells [1] = assay: Tumor vertical migration (Transwell chambers); type: cell-based; settings: 48 h
Method: A549 cells in the logarithmic growth phase were taken, digested with trypsin to prepare a cell suspension, and 100 µL of the cell suspension was inoculated into Transwell chambers with 3.5×10^4 cells per well. A blank group, a positive drug group, and an administration group were set up. […] 600 µL of F-12K medium containing 10% FBS was added to the 24-well plate holding the chambers. After incubation in a 37°C, 5% CO2 incubator for 48 h, the cells were fixed with methanol for 30 min and stained with crystal violet for 10 min. After staining, the cell migration status was photographed under a microscope (model: CKX31SF, manufacturer: OLYMPUS CORPORATION) at a magnification of 100×. Meanwhile, Photoshop 20.0.1 was used for quantitative calculation of the number of migrated tumor cells, and the results were expressed as mean ± SD (n = 3).

[2] = test system: gastric cancer MKN45 xenograft tumors; assay: In vivo tumor-inhibitory activity of DOC-AI, MKN45 xenograft; design: species or system BALB/c nude mice; Tumor Weight: unit not given here; settings: 6.20 µmol/Kg
Method: (§1) Non-small cell lung cancer A549 cells and human gastric cancer MKN-45 cells were preserved in F12-K medium containing 10% fetal bovine serum and 1% penicillin + streptomycin, and incubated at 37°C with 5% CO2 and 95% humidity. The aforementioned cells were cultured in T175 flasks with an experimental cell density of 80%. The aforementioned cell lines were mycoplasma-negative. Both A549 cells and MKN-45 cells were provided by Nanjing Anji Biotechnology Co., Ltd.
Gastric cancer MKN45 cells in the vigorous growth stage were taken and inoculated subcutaneously into the right axilla of BALB/c nude mice (Hangzhou Ziyuan Laboratory Animal Technology Co., Ltd.) under sterile conditions, with a cell inoculation amount of 1×10^7. The diameter of transplanted tumors in nude mice was measured with a vernier caliper. When the tumors grew to approximately 50 mm^3, 18 tumor-bearing nude mice with good growth status and relatively uniform tumor size were selected and divided into 3 groups, with 6 mice in each group. The administration frequency was once every 3 days, and this cycle was repeated until day 21. The anti-tumor effect in the nude mice was dynamically observed by measuring the tumor diameter. The tumor diameter was measured every other day, and the body weight of the nude mice was weighed simultaneously during the measurement of the tumor diameter. After 21 days of administration, the nude mice were euthanized, the tumor inhibition rate (%) was calculated, and the tumor masses were peeled off and weighed. Table 7 Results of Detection of In Vivo Tumor-Inhibitory Activity of DOC-AI

A549 cells [3] = assay: Tumor horizontal migration (scratch test); type: cell-based; settings: 48 h
Method: A549 cells in the logarithmic growth phase were taken, digested with trypsin to prepare a cell suspension, and 1 mL of the cell suspension was inoculated into a 24-well plate with 3.5×10^5 cells per well. The 24-well plate was incubated in a 37°C, 5% CO2 incubator for 24 h, then a scratch was made vertically along the horizontal line at the bottom of the plate using a 200 µL pipette tip (one scratch per well). The original medium was discarded, and the wells were washed twice with 1 mL PBS. A blank group, a positive drug group, and an administration group were set up. […] The cell migration status was photographed at 0 h and 48 h using a microscope (model: CKX31SF, manufacturer: OLYMPUS CORPORATION) at a magnification of 100×. Meanwhile, ImageJ 1.74V was used for quantitative calculation of the number of migrated tumor cells, and the results were expressed as mean ± SD (n = 3).

[4] = test system: non-small cell lung cancer A549 xenograft tumors; assay: In vivo tumor-inhibitory activity of DOC-AI, A549 xenograft; design: species or system BALB/c nude mice; settings: 4 days on, 3 days off until day 21
Method: as §1
Non-small cell lung cancer A549 cells in the vigorous growth stage were taken and inoculated subcutaneously into the right axilla of BALB/c nude mice (Nanjing Zhonghua Biotechnology Co., Ltd.) under sterile conditions, with a cell inoculation amount of 1×10^7. The diameter of transplanted tumors in nude mice was measured with a vernier caliper. When the tumors grew to approximately 50 mm^3, 30 tumor-bearing nude mice with good growth status and relatively uniform tumor size were selected and divided into 5 groups, with 6 mice in each group. The administration frequency was continuous administration for 4 days followed by an interval of 3 days, and this cycle was repeated until day 21. The anti-tumor effect in the nude mice was dynamically observed by measuring the tumor diameter. The tumor diameter was measured every other day, and the body weight of the nude mice was weighed simultaneously during the measurement of the tumor diameter. After 21 days of administration, the nude mice were euthanized, the tumor inhibition rate (%) was calculated, and the tumor masses were peeled off and weighed. Table 2 Detection of In Vivo Tumor-Inhibitory Activity of DOC-AI

[5] = test system: Raji (human lymphoma cells); assay: Tumor cell proliferation inhibition (CCK8); type: cell-based; settings: IC50 of free drug / IC50 of polypeptide conjugate
Text: Human highly metastatic hepatocellular carcinoma cells HCCLM3, human highly metastatic gastric cancer cells MKN45, human gastric cancer cells BGC-823 and MGC-803, non-small cell lung cancer cells A549, human pancreatic cancer cells ASPC-1, human colon cancer cells LoVo, human ovarian cancer cells A2780, human cervical cancer cells SiHa, human malignant melanoma cells SK-mel-2 and M14, human osteosarcoma cells Saos-2, human bladder transitional cell carcinoma cells T24, human brain glioblastoma cells U87-MG, human lymphoma cells Raji, and human epidermal cancer cells A431 were selected for the experiment. Among them, HCCLM3 cells, MKN45 cells, BGC-823 cells, MGC-803 cells, A431 cells and A549 cells were provided by Nanjing Anji Biotechnology Co., Ltd., and the other cells were provided by Nanjing Ouji Pharmaceutical Technology Service Co., Ltd.
The aforementioned tumor cells were preserved in a medium containing 10% fetal bovine serum and 1% penicillin-streptomycin, and incubated at 37°C with 5% CO2 and 95% humidity. The aforementioned tumor cells were cultured in T75 flasks with an experimental cell density of 80%. The aforementioned tumor cell lines were mycoplasma-negative.
Tumor cells in the logarithmic growth phase were taken for the experiment. The cells were digested, counted, and prepared into a cell suspension with a concentration of 1×10^5 cells/mL, which was then inoculated into a 96-well plate (100 µL per well). The 96-well plate was incubated in a 37°C, 5% CO2 incubator for 24 hours. […] After incubating the plate in the incubator for 72 h, the cell morphology of each group was observed under a microscope. Then, 10 µL of CCK8 solution (Nanjing Enjing Biotechnology Co., Ltd.) was added to each well, and the plate was further incubated in the cell incubator for 4 h. After incubation, the absorbance was measured at 450 nm, and the tumor cell proliferation inhibition rate was calculated. The efficiency ratio was the ratio of the IC50 value of the free drug to that of the polypeptide conjugate. Table 1 Tumor cell proliferation inhibition rates of polypeptide conjugates

[6] = MKN45 xenograft, once every 3 days until day 21

Compound | vertical migration rate (A549 cells [1]; 10 nM DOC-AI compared with 10 nM DOC) | vertical migration of A549 cells (A549 cells [1]; 1 µM, 100 nM, 10 nM, 1 nM, compared with the blank group) | effective concentration (vertical migration) (A549 cells [1]; A549, lowest effective concentration) [nM] | body weight changes ([2]; MKN45 xenograft nude mice, during the administration period) | Tumor Inhibition Rate [2, 6] [%] | Tumor Weight [2, 6] | Final Tumor Volume ([2]; MKN45 xenograft, once every 3 days until day 21, in mm³ (unit assumed)) | horizontal migration rate (A549 cells [3]; 1 nM DOC-AI compared with 100 nM DOC) | horizontal migration of A549 cells (A549 cells [3]; 100 nM, 10 nM, 1 nM, compared with the blank group) | Final Tumor Volume ([4]; 6.20 µmol/Kg) | Tumor Inhibition Rate ([4]; 6.20 µmol/Kg) [%] | Tumor Weight ([4]; 6.20 µmol/Kg) [mg] | Final Tumor Volume ([4]; 12.40 µmol/Kg) | Tumor Inhibition Rate ([4]; 12.40 µmol/Kg) [%] | Tumor Weight ([4]; 12.40 µmol/Kg) [mg] | Final Tumor Volume ([4]; 24.80 µmol/Kg) | Tumor Inhibition Rate ([4]; 24.80 µmol/Kg) [%] | Tumor Weight ([4]; 24.80 µmol/Kg) [mg] | Efficiency Ratios [5]
CC(=O)O[C@@]12CO[C@@H]1C[C@H](O)[C@@]1(C)C(=O)[C@H](O)C3=C(C)[C@@H](OC(=O)[C@H](OC(=O)CCC(=O)N[C@@H](CCCNC(=N)N)C(=O)N[C@@H](CO)C(=O)N4CCC[C@H]4C(=O)N[C@@H](Cc4ccc(O)cc4)C(=O)N[C@@H](C)C(=O)N[C@@H](CC(N)=O)C(=O)N[C@@H](CO)C(=O)O)[C@@H](NC(=O)OC(C)(C)C)c4ccccc4)C[C@@](O)([C@@H](OC(=O)c4ccccc4)[C@H]21)C3(C)C [DOC-AI] | lower than that of 10 nM DOC | effectively inhibited the vertical migration of A549 cells in a concentration-dependent manner | 1 | no significant weight loss was observed | 84.25±9.15 | 204.34±54.48 | 191.31±54.48 | lower than that of 100 nM DOC | effectively inhibited the horizontal migration of A549 cells in a concentration-dependent manner | 73.75±23.01 | 90.40 | 81.00 ± 40.81 | 31.31±22.73 | 95.33 | 51.83 ± 31.36 | 20.30±20.80 | 97.33 | 20.53 ± 20.80 | 
CC(=O)O[C@H]1C(=O)[C@@]2(C)[C@H]([C@H](OC(=O)c3ccccc3)[C@]3(O)C[C@H](OC(=O)[C@H](OC(=O)CCC(=O)N[C@@H](CCCNC(=N)N)C(=O)N[C@@H](CO)C(=O)N4CCC[C@H]4C(=O)N[C@@H](Cc4ccc(O)cc4)C(=O)N[C@@H](C)C(=O)N[C@@H](CC(N)=O)C(=O)N[C@@H](CO)C(=O)O)[C@@H](NC(=O)c4ccccc4)c4ccccc4)C(C)=C1C3(C)C)[C@]1(OC(C)=O)CO[C@@H]1C[C@@H]2O [PTX-AI] ({Paclitaxel(2'-O-succinyl)}-RSPYANS-OH) |  |  |  |  |  |  |  |  |  |  |  |  |  |  |  |  |  |  | 1.09
